Source: patent publication US20250367251A1, “SKELETON PROTECTION METHOD USING PEPTIDE” (Pell Bio-Med Technology Co., Ltd., priority 2024, published 2025)
Non-standard residues stand in square brackets, D forms with d. Residues, ends and D or L forms follow the SMILES beside them. pGlu = O=C1CC[C@@H](C(=O)O)N1

What was measured:
[1] = tested on: adjuvant-induced arthritis (AIA) model in C57BL/6 mice; experiment: Adjuvant-induced arthritis (AIA) model, micro-CT of calcaneus bone (cortical surface, bone mineral density); format: in vivo
From the text: Scientific reports, 7(1), 8870. […] Said mice were sacrificed on Day 45.
Each mouse was anesthetized (2.5% isoflurane, 1.0 L/min air) and the anesthetic gas was maintained during the scanning. The mouse was subjected to lay on one side on the carbon fiber half-tube bed while kept anesthetized in the micro-CT scanner (Skyscan 1076), and the right hindpaw was positioned on a cylindrical shape styrofoam holder. The mouse's paw was immobilized at the scanning midline of the scanner to eliminate any undesirable movement of the paw.
Settings for the micro-CT scanner (SkyScan-1076; Bruker micro CT, Belgium) were as follows: isotropic voxel size: 9 μm, tube voltage: 49 kV, current: 167 μA, Al filter: 0.5 mm, and 180° scan with 0.6° rotation step […] with frame averaging of 3. Subsequently, micro CT projections were back projection-reconstructed using the NRecon software (NReconServer64 bit, Bruker, MicroCT, Belgium) and volume-rendered and visualized in 3D with the CTVox software (Bruker, MicroCT, Belgium). The images of calcaneus bone were segmented and analyzed using the CTAn software (Bruker, MicroCT, Belgium).
GraphPad Prism 9.3.1 (GraphPad Software, USA) was used for statistical analyses and graphing. Data are presented as mean±standard deviation. The level of statistical significance was set at 5% (P<0.05) for all analyses. Data analysis of the indexes derived from the μCT images of calcaneus bone of mice was carried out, for example, One-way RM ANOVA (One-way Repeated Measures Analysis of Variance) with Tukey's post hoc test was used for data analysis of bone mineral density.
The observation time window of μCT scanning was set before AIA induction (Week 0), at the end of induction (Week 4), and after 1 or 2 weeks' treatment (i.e., Week 5 and Week 6). According to FIG. 1A and FIG. 1B, obviously, the surface integrity of the calcaneus bone was disturbed at Week 4 (the end of induction and prior to treatment), manifested as unevenness of the cortical bone (dashed line circle, Week 4 vs Week 0).

[2] = tested on: SW982 synoviocytes; experiment: Cell viability test (CCK-8) of SW982 synoviocytes; format: cell-based
Protocol: Owing to the restricted lifespan of primary rheumatoid arthritis fibroblast-like synoviocytes (RA-FLS), the fibroblast-like synoviocytes (FLS) cell line SW982 synoviocytes (hereinafter referred to as SW982 cells) are well accepted as a useful in vitro model for studying the pathogenesis of RA. In short, SW982 cells were seeded in a 96-well plate at a cell density of 6,000 cells per well. After the cells were treated in the following groups, the effect of each treatment group on the viability of SW982 cells was tested by means of the cell proliferation detection kit (cell counting kit-8, CCK8; Elabscience, Catalog No: E-CK-A361) according to the manufacturer's manual. Said treatment groups were as follows: (1) Different concentrations of the peptide of SEQ ID NO: 1: SW982 cells were treated with the L15 culture medium containing 10^−6, 10^−7, 10^−8, 10^−9 μM of the peptide of SEQ ID NO: 1 for 24 hours; (2) IL-1β stimulation group: SW982 cells were stimulated with the culture medium containing 1 ng/mL IL-1β for 24 hours to simulate the inflammatory synoviocytes of rheumatoid arthritis; (3) Co-treatment group: SW982 cells were treated with culture medium containing 10^−9 μM of the peptide of SEQ ID NO: 1 and 1 ng/mL of IL-1β for 72 hours. The SW982 cells in said treatment groups were all cultured in a carbon dioxide-free environment. In addition, SW982 cells were simply cultured in L15 medium for 24 hours, as the control group. This test uses 2-(2-methoxy-4-nitrophenyl)-3-(4-nitrophenyl)-5-(2,4-disulfophenyl)-2H-tetrazolium sodium salt (WST-8) from CCK-8 kit to react with the dehydrogenase in viable cells, so that the color of all treatment groups containing WST-8 turned from pink to orange. By detecting the absorbance value at 450 nm, the activity of dehydrogenase was determined to calculate the number of viable cells.

[3] = tested on: SW982 cells; experiment: SW982 cell migration measurement (wound healing experiment); format: cell-based; details: 10^−7 to 10^−5 μM, 24 h
From the text: It is known that fibroblast-like synoviocytes secrete inflammatory cytokines, chemokines, and matrix metalloproteinases (MMPs) and induce cell migration and invasion to damage joints and cartilage. We next examined the effect of the peptide of SEQ ID NO: 1 on SW982 cell migration through a conventional wound healing experiment. Specifically, a Culture-Insert 2 Well (ibidi) in which two cell culture reservoirs were separated by a 500 μm wall was placed on a cell culture plate surface. Both reservoirs were filled with cells suspension containing L15 culture medium and 4×10^4 SW982 cells to allow cell growth in the designated areas. After appropriate cell attachment of all SW982 cells, the Culture-Insert 2 Well was removed to create a cell-free gap of approximately 500 μm. The cell monolayer was washed with PBS buffer to remove detached cells and debris. The SW982 cells were incubated with the peptide of SEQ ID NO: 1 (10^−5, 10^−6, 10^−7 μM) in L15 culture medium or with L15 culture medium only (as control group) for 24 h in a carbon dioxide-free environment. By using direct microscopic visualization, a reference point at the bottom was created in each field, and the image of the remaining cell-free area in the identical field shot immediately after 24 h-treatment of the peptide of SEQ ID NO: 1 was measured to analyze cell migration and wound healing rates. […]

[4] = tested on: RAW264.7 cells; experiment: Bone resorption assay (RANKL-induced, CaP-coated plate pit area); format: cell-based; details: 100 μM with 100 ng/ml RANKL, 7 days, p<0.001 vs RANKL group
Protocol: This test used RANKL (receptor activator of nuclear factor kappa-B ligand) as an inducer of osteoclastic differentiation to detect whether the peptide of SEQ ID NO: 1 could inhibit osteoclast resorptive function induced by RANKL in vitro, and comprised three groups: control group, RANKL group and treatment group.
First, RAW264.7 cells were seeded in a calcium phosphate (CaP)-coated 96-well with a density of 2×10^3 cells per well. RAW264.7 is a macrophage cell line, and RAW264.7 cells can differentiate into an osteoclast. The cells of all groups were cultivated for 7 days according to the manufacturer's instructions of Bone Resorption assay kit (Cosmo Bio). The differences between control group, RANKL group and treatment group were as follows: • (1) Control group: neither RANKL nor the peptide of SEQ ID NO: 1 was provided to RAW264.7 cells during a 7-day incubation period. • (2) RANKL group: RANKL in a concentration of 100 ng/ml was provided to RAW264.7 cells at Day 1 and incubated for 7 days. • (3) Treatment group: RANKL in a concentration of 100 ng/ml and the peptide of SEQ ID NO: 1 in a concentration of 100 μM were simultaneously provided to RAW264.7 cells at Day 1 and incubated for 7 days.
After the 7-day incubation period, all wells of all groups were washed with 0.2 ml to 0.5 ml of 5% sodium hypochlorite to remove the cells adhered to the surface. […]

[5] = Preliminary safety profile in AIA mice (body weight changes, observation); details: for body weight changes: oral once daily, after 1- or 2-week treatment (Week 5 or Week 6), compared with Week 4 or vehicle group, P>0.05
Protocol: This animal study was carried out according to the adjuvant-induced arthritis (AIA) model designed by Academia Sinica, Taipei, Taiwan. Specifically, arthritis induction was performed according to the method described in Gauldie, S. D., McQueen, D. S., Clarke, C. […] In short, this animal study comprised thirty C57BL/6 mice purchased from National Laboratory Animal Center, Taiwan, which were 8 weeks old with a body weight of about 20 to 25 grams. By using a 30-gauge needle mounted on a 100 μl Hamilton syringe, said mice were respectively injected with 5 μg Complete Freund's Adjuvant (CFA) (F5881, Sigma, USA) in the right ankle joint once a week for consecutive 4 times, wherein the first injection was carried out at week 0 (day 0), and said mice were anesthetized and maintained with 2% isoflurane during the injection. The AIA model can induce long-term inflammation and swelling in unilateral anterior ankle joints in C57BL/6 mice, thereby simulating the clinical long-term chronic pain of patients with rheumatoid arthritis.
After CFA induction, said mice were weekly weighted and scored with rheumatoid arthritis score estimation (data not shown) according to Hsieh, W. S., et al. (2017). […] The mice were assigned to 5 groups: (1) vehicle group, (2) P1 group (provided with 1 mg/kg/day peptide of SEQ ID NO: 1), (3) P3 group (provided with 3 mg/kg/day peptide of SEQ ID NO: 1), (4) P10 group (provided with 10 mg/kg/day peptide of SEQ ID NO: 1), and (5) T group (provided with 12.4 mg/kg/day tofacitinib). Said animal grouping was based on the rheumatoid arthritis scores by a random sampling mode. The drug administration from Week 4 (Day 28) to Week 6 (Day 42) was as follows: said mice received once-daily oral dosing (gavage) of 5 μL/g of body weight (bw) of a solution comprising: (1) the peptide of SEQ ID NO: 1 (1 mg/kg bw, 3 mg/kg bw or 10 mg/kg bw, dissolved in water) in P1, P3 and P10 group, respectively, (2) tofacitinib (12.4 mg/kg bw, dissolved with 0.5% carboxymethylcellulose aqueous solution) in T group, and (3) water in vehicle group. Said mice were sacrificed on Day 45. […]

| Molecule | bone contour / cortical surface of calcaneus bone (micro-CT) ([1]; 1 mg/kg oral once daily, Week 4 to Week 6) | bone mineral density (BMD) of calcaneus bone ([1]; 1 mg/kg oral, 1- or 2-week treatment, Week 5/6 vs Week 4, P>0.05) | bone contour / cortical surface of calcaneus bone (micro-CT) ([1]; 3 mg/kg oral once daily, Week 4 to Week 6) | bone mineral density (BMD) of calcaneus bone ([1]; 3 mg/kg oral, 1- or 2-week treatment, Week 5/6 vs Week 4, P>0.05) | bone contour / cortical surface of calcaneus bone (micro-CT) ([1]; 10 mg/kg oral once daily for 2 weeks, Week 6 vs Week 4) | bone mineral density (BMD) of calcaneus bone ([1]; 10 mg/kg oral, after 1-week treatment) | bone mineral density (BMD) of calcaneus bone ([1]; 10 mg/kg oral, after 2 week treatment, Week 6 vs Week 4, P<0.05) | IL-1β-induced proliferation of SW982 cells ([2]; 10^−9 μM with 1 ng/mL IL-1β, 72 hours) | proliferation of SW982 cells ([2]; 10^−9 to 10^−6 μM, 24 hours) | lateral migration of SW982 cells [3] | pit area (calcium phosphate resorption) relative to RANKL group (one-fold) [4] | observation of treated mice (signs of toxicity) ([5]; oral once daily Week 4 to Week 6) | body weight changes [5] | proliferation of SW982 cells ([2]; 1 ng/mL, 24 h) | bone mineral density (BMD) of calcaneus bone ([1]; 12.4 mg/kg/day oral, 1- or 2-week treatment, Week 5/6 vs Week 4, P>0.05) | bone contour / cortical surface of calcaneus bone (micro-CT) ([1]; 12.4 mg/kg/day oral, Week 6 vs Week 4) |
| --- | --- | --- | --- | --- | --- | --- | --- | --- | --- | --- | --- | --- | --- | --- | --- | --- |
| CC(C)[C@H](NC(=O)[C@H](C)NC(=O)[C@@H](NC(=O)[C@H](CCC(=O)O)NC(=O)[C@@H]1CCC(=O)N1)[C@@H](C)O)C(=O)N[C@@H](CO)C(=O)N[C@@H](CO)C(=O)N[C@@H](Cc1c[nH]cn1)C(=O)N[C@@H](CCC(=O)O)C(=O)N[C@@H](CCC(N)=O)C(=O)N[C@@H](CC(=O)O)C(=O)O [peptide of SEQ ID NO: 1, Glp Glu Thr Ala Val Ser Ser His Glu Gln Asp] ([pGlu]ETAVSSHEQD-OH) | no benefits in restoring the bone contour | no significant changes in BMD | no benefits in restoring the bone contour | no significant changes in BMD | much smoother cortical surfaces with fewer spiky projections of calcaneus bone | no increase in BMD | significant increases in BMD | significantly suppress the IL-1β-induced proliferation of SW982 cells | effectively inhibit the proliferation of SW982 cells | significantly reduced the lateral migration of SW982 cells | about 0.5 fold | no signs of irritability, loss of vigor, or any skin or hair changes | no significant difference in body weight changes | – | – | – |
| IL-1β: cytokine used to stimulate SW982 cells to simulate the inflammatory synoviocytes of rheumatoid arthritis [reference compound] | – | – | – | – | – | – | – | – | – | – | – | – | – | dramatically enhanced the proliferation of SW982 cells | – | – |
| C[C@@H]1CCN(C(=O)CC#N)C[C@@H]1N(C)c1ncnc2[nH]ccc12 [Tofacitinib, reference compound] | – | – | – | – | – | – | – | – | – | – | – | – | no significant difference in body weight changes | – | neither 1- nor 2-week treatment of Tofacitinib was able to revert the BMD decrement | did not reduce the extent of surface roughness or the distortion of the bone contour |
